Tests used:
786-O = experiment: MTT cytotoxicity, human tumor cell strain; assay type: cell-based; conditions: 786-0, Kidney, 72 hours
Source text: (§1) We use human tumor cell lines to conduct cytotoxicity analysis. Thirty-one (31) kinds of human tumor cell strains are cultivated in the normal culture medium containing various compounds of zhangnan-5, zhangnan-7 and zhangnan-8. The human tumor lines are bought from ATCC and NCI, and is cultivated with DMEM culture solution containing 10% FBS in 370C couveuse containing 5% CO2. The merged cells are digested by trypsinase, and are counted after washed by the culture solution. 3000˜6000 cells are added into each hole of the 96-hole culture plate, and are hatched for 16 hours or 24 hours. Then, compounds zhangnan-5, zhangnan-7 and zhangnan-8 with different concentrations are added into the holes. Upon further cultivated for another 72 hours, MTT tests are conducted to cells in group treated with drugs and the control group cells, to determine the survival condition of the cells.

A549 = experiment: MTT cytotoxicity, human tumor cell strain; assay type: cell-based; conditions: A549, Lung, 72 hours
Source text: as §1

AU-565 = experiment: MTT cytotoxicity, human tumor cell strain; assay type: cell-based; conditions: AU565, AU-565, Mammary Gland, 72 hours
Source text: as §1

BT-549 = experiment: MTT cytotoxicity, human tumor cell strain; assay type: cell-based; conditions: BT-549, Mammary Gland, 72 hours
Source text: as §1

CCL-225 = experiment: MTT cytotoxicity, human tumor cell strain; assay type: cell-based; conditions: CCL-225, Colon, 72 hours
Source text: as §1

CCL-247 = experiment: MTT cytotoxicity, human tumor cell strain; assay type: cell-based; conditions: CCL-247, Colo, 72 hours
Source text: as §1

CNE-2Z = experiment: MTT cytotoxicity, human tumor cell strain; assay type: cell-based; conditions: CNE2Z, Nasopharynx, 72 hours
Source text: as §1

Caki-1 = experiment: MTT cytotoxicity, human tumor cell strain; assay type: cell-based; conditions: Caki-1, Kidney, 72 hours
Source text: as §1

EC109 = experiment: MTT cytotoxicity, human tumor cell strain; assay type: cell-based; conditions: ECa-109, EC109, Esophagus, 72 hours
Source text: as §1

HT29 = experiment: MTT cytotoxicity, human tumor cell strain; assay type: cell-based; conditions: HT-29, HT29, Colon, 72 hours
Source text: as §1

IGROV1 = experiment: MTT cytotoxicity, human tumor cell strain; assay type: cell-based; conditions: IGROV-1, IGROV1, Ovary, 72 hours
Source text: as §1

Jurkat = experiment: MTT cytotoxicity, human tumor cell strain; assay type: cell-based; conditions: Leukemia T Cell, 72 hours
Source text: as §1

LnCAP = experiment: MTT cytotoxicity, human tumor cell strain; assay type: cell-based; conditions: Prostate, 72 hours
Source text: as §1

MCF-7 = experiment: MTT cytotoxicity, human tumor cell strain; assay type: cell-based; conditions: MCF7, MCF-7, Mammary Gland, 72 hours
Source text: as §1

MDA-MB-231 = experiment: MTT cytotoxicity, human tumor cell strain; assay type: cell-based; conditions: MDA-MB-231, Mammary Gland, 72 hours
Source text: as §1

Mid PaCa-2 = experiment: MTT cytotoxicity, human tumor cell strain; assay type: cell-based; conditions: Mid PaCa-2, Pancreatic Gland, 72 hours
Source text: as §1

NCI-H23 = experiment: MTT cytotoxicity, human tumor cell strain; assay type: cell-based; conditions: NCI-H23, Lung, 72 hours
Source text: as §1

PC3 = experiment: MTT cytotoxicity, human tumor cell strain; assay type: cell-based; conditions: PC-3, PC3, Prostate, 72 hours
Source text: as §1

Raji = experiment: MTT cytotoxicity, human tumor cell strain; assay type: cell-based; conditions: Lymphoma, 72 hours
Source text: as §1

SGC-7901 = experiment: MTT cytotoxicity, human tumor cell strain; assay type: cell-based; conditions: SGC-7901, Stomach, 72 hours
Source text: as §1

SKOV3 = experiment: MTT cytotoxicity, human tumor cell strain; assay type: cell-based; conditions: SK-OV-3, SKOV3, Ovary, 72 hours
Source text: as §1

SN12C = experiment: MTT cytotoxicity, human tumor cell strain; assay type: cell-based; conditions: Kidney, 72 hours
Source text: as §1

U-251 = experiment: MTT cytotoxicity, human tumor cell strain; assay type: cell-based; conditions: U-251, Malignant Glioma, 72 hours
Source text: as §1

Widr = experiment: MTT cytotoxicity, human tumor cell strain; assay type: cell-based; conditions: Colon, 72 hours
Source text: as §1

human tumor cell strains = experiment: MTT cytotoxicity, human tumor cell strains (summary statement); assay type: cell-based; conditions: some (unnamed) human tumor cell strains, 72 hours, read-out: EC50 of some tumor cells
Source text: as §1

[1] = Acute toxicity of zhangnan-5 to mice upon feeding; assay type: in vivo, BlebC mice
Source text: (6) Research on the acute toxicity of compound zhangnan-5 to mice upon feeding the drug: (see Gol'dberg L E, Stepanova E S, Vertogradova T P, Shevniuk L A, Shepelevtseva G. Preclinical toxicological study of the new antibiotic eremomycin. Its acute toxicity for laboratory animals, Antibiot Med Biotekhnol. 1987, 32 (12): 910-5).
Two groups of 8-week old BlebC mice are taken, and each group has 10 mice (five male and five female). The mice are fed with the compound zhangnan-5 (prepared with corn oil or carrier) in single dose 500 mg/kg and in multi-dose 200 mg/kg (QDX15), respectively. Then, observation is made to the mice for 1 week and 4 week, respectively. The mice are weighted every other day. When the test is over, the tested mice are killed for pathological analysis. […] Thus, the compound zhangnan-5 has great potential to be developed as a new antineoplastic drug of wide spectrum. The compound zhangnan-5 can be used as drug substance of anti-tumor drugs, preferably used as drug substance of anti-malignant solid tumor drugs. The compound zhangnan-5 can also be used with drug carrier and/or excipient to make anti-tumor drug. The drug carrier and/or excipient can be, for example, corn oil, sodium carboxymethylcellulose, and the like.

SMILES	EC50 (786-O)	EC50 (A549)	EC50 (AU-565)	EC50 (BT-549)	EC50 (CCL-225)	EC50 (CCL-247)	EC50 (CNE-2Z)	EC50 (Caki-1)	EC50 (EC109)	EC50 (HT29)	EC50 (IGROV1)	EC50 (Jurkat)	EC50 (LnCAP)	EC50 (MCF-7)	EC50 (MDA-MB-231)	EC50 (Mid PaCa-2)	EC50 (NCI-H23)	EC50 (PC3)	EC50 (Raji)	EC50 (SGC-7901)	other results
CC(C)C1CCC2(C(=O)O)CCC3(C)C(CCC4C5(C)CCC(O)C(C)(CO)C5CCC43C)C12 (stereo not shown) [zhangnan-8, 23-hydroxyl-dihydrobetulinic acid]	8.1 µM	6.9 µM	6.8 µM	7.4 µM	8.6 µM	8.2 µM	10.2 µM	9.2 µM	9.5 µM	8.9 µM	7.2 µM	7.1 µM	7.8 µM	7.8 µM	7.2 µM	9.4 µM	6.7 µM	8.9 µM	6.9 µM	8.9 µM	EC50 (SKOV3): 6.9 µM; EC50 (SN12C): 7.6 µM; EC50 (U-251): 5.6 µM; EC50 (Widr): 8.1 µM
CC(C)C1CCC2(C(=O)O)CCC3(C)C(CCC4C5(C)CCC(=O)C(C)(CO)C5CCC43C)C12 (stereo not shown) [zhangnan-7]	16.8 µM	13.1 µM	18.2 µM	17.4 µM	16.1 µM	15.6 µM	19.2 µM	20.1 µM	17.9 µM	13.9 µM	17.4 µM	21.3 µM	15.6 µM	16.9 µM	17.5 µM	18.9 µM	12.8 µM	16.2 µM	20.5 µM	18.5 µM	EC50 (SKOV3): 16.9 µM; EC50 (SN12C): 17.5 µM; EC50 (U-251): 17.8 µM; EC50 (Widr): 14.8 µM
C=C(C)C1CCC2(C(=O)O)CCC3(C)C(CCC4C5(C)CCC(=O)C(C)(CO)C5CCC43C)C12 (stereo not shown) [zhangnan-5]	3.1 µM	0.54 µM	0.59 µM	0.67 µM	0.23 µM	0.52 µM	1.3 µM	0.98 µM	0.78 µM	0.47 µM	2.1 µM	0.14 µM	0.69 µM	0.58 µM	0.47 µM	0.93 µM	0.32 µM	0.91 µM	0.098 µM	0.89 µM	EC50 (SKOV3): 1.5 µM; EC50 (SN12C): 1.3 µM; EC50 (U-251): 0.089 µM; EC50 (Widr): 0.28 µM; EC50 (human tumor cell strains): < 0.1 µM; toxicity, multi-dose ([1]; fed, multi-dose 200 mg/kg (QDX15), observed 4 week): no toxicity is observed; acute toxicity ([1]; fed, single dose 500 mg/kg, observed 1 week): no toxicity is observed; mortality ([1]; single dose 500 mg/kg and multi-dose 200 mg/kg (QDX15)): no single death

— US20120302530A1, “23-HYDROXY-BETULINIC ACID DERIVATIVES, PREPARATION METHODS AND USES THEREOF” (priority 2009, published 2012)
